Test [1] has as its system alpha-glucosidase (Saccharomyces cerevisiae). In words: Inhibitory activity against alpha-glucosidase of yeast; No inhibition.
The subject of test [2] is Alpha-glucosidase (Saccharomyces cerevisiae). In words: Inhibitory activity against alpha-glucosidase of yeast at a concentration of 0.1 mM.

These results are taken from ChEMBL document CHEMBL1131954, “Homoisofagomines: chemical-enzymatic synthesis and evaluation as alpha- and beta-glucosidase inhibitors” (Bioorg Med Chem Lett, 1999).

In the case of `C[C@@H]1NC[C@@H](CO)[C@@H](O)[C@@H]1O`, the Ki result in test [1] is recorded as “Not Active”. Further, the inhibition – broadly, the change of the read-out against control, counted positive when it falls – in test [2] is less than 20%.
